Laboratory results reported in patent US20250041254A1, “USE OF SODIUM FORMATE IN PREPARATION OF AN ANTI-INFECTIVE DRUG” (priority 2022, published 2025).

Columns and labels:
Type in all cases: cell-based
[1] = system: clinically multidrug-resistant and carbapenem-resistant Escherichia coli strain No. 28; assay: Live bacterial count / survival rate of CR Escherichia coli strain No. 28 (antibiotic concentration, sodium formate concentration, time, other antibiotics)
Protocol: Single bacterial colonies were selected and inoculated into a 5 mL LB medium, cultivated at 37° C. (clinically multidrug-resistant and carbapenem-resistant or multidrug-resistant but carbapenem-sensitive Escherichia coli, clinically multidrug-resistant and carbapenem-resistant or multidrug-resistant but carbapenem-sensitive Klebsiella pneumoniae, clinically multidrug-resistant and carbapenem-resistant or multidrug-resistant but carbapenem-sensitive Pseudomonas aeruginosa, methicillin-resistant Staphylococcus aureus, and sensitive bacteria for each type of bacteria) or 30° C. (Edwardsiella tarda and Vibrio) at 200 rpm for 16-24 hours; an appropriate amount of a bacterial solution was taken for centrifugation at 8000 rpm for 5 min to collect bacterial cells, the supernatant was removed, and the bacterial cells were washed with an equal volume of 0.85% normal saline for 3 times and suspended in M9 medium (containing 10 mM proline, 2 mM MgSO4. 0.1 mM CaCl2)), and a base bacterial solution was cultured with M9 to an OD600 concentration of 0.6 and divided into 5 mL test tubes for later use.
Taking clinically multidrug-resistant and carbapenem-resistant Escherichia coli strain No. 28 as an example, adding different concentrations of sodium formate or different concentrations of antibiotics and under different treating times, the effect of improving the sensitivity of multidrug-resistant Escherichia coli to micronomicin was studied in depth.
To understand how sodium formate increased the sensitivity of bacteria to micronomicin at different antibiotic concentrations, on the basis of exogenous addition of 20 mM sodium formate, 30-480 μg/mL (several concentrations of) micronomicin was added to treat bacteria. No antibiotic addition was used as a control, and live bacterial counts were performed to compare the survival rates of bacteria with and without the addition of sodium formate at the same antibiotic concentration after 10 hours.
To investigate whether there was a gradient effect between the concentration of sodium formate and the bactericidal efficiency, as well as its optimal bactericidal concentration, different concentrations of sodium formate (0.625 mM-40 mM) were added on the basis of 60 μg/mL micronomicin addition for 10 hours, then live bacteria were counted, and the survival rate was calculated according to a formula as the following: the number of live bacteria with different concentrations of sodium formate addition/the number of live bacteria without sodium formate addition×100%.
Further research was conducted on adding 20 mM sodium formate and 60 μg/mL micronomicin and counting live bacteria at different time, and the relationship between its bactericidal efficiency and time was observed.
To investigate whether the addition of sodium formate is effective to antibiotics other than micronomicin in multidrug-resistant Escherichia coli, a clinical multidrug-resistant and carbapenem-resistant Escherichia coli sample No. 28 was prepared according to Embodiment 1, and 20 mM sodium formate and different kinds of antibiotics were added, respectively. After 10 hours of action, the number of live bacteria was counted, and the survival rate of the bacteria with different antibiotics was calculated after adding sodium formate.

[2] = system: clinical multidrug-resistant but carbapenem-sensitive Escherichia coli (MDR-EC); assay: Survival rate (dot plate counting) of clinical multidrug-resistant but carbapenem-sensitive Escherichia coli, 18 strains; details: 10 hours
Protocol: (§1) Single bacterial colonies were selected and inoculated into a 5 mL LB medium, cultivated at 37° C. (clinically multidrug-resistant and carbapenem-resistant or multidrug-resistant but carbapenem-sensitive Escherichia coli, clinically multidrug-resistant and carbapenem-resistant or multidrug-resistant but carbapenem-sensitive Klebsiella pneumoniae, clinically multidrug-resistant and carbapenem-resistant or multidrug-resistant but carbapenem-sensitive Pseudomonas aeruginosa, methicillin-resistant Staphylococcus aureus, and sensitive bacteria for each type of bacteria) or 30° C. […]
(§2) Thirty-six clinical multidrug-resistant Escherichia coli samples were prepared according to Embodiment 1, of which 18 were clinical multidrug-resistant and carbapenem-resistant Escherichia coli (abbreviated as CR-EC) and 18 were clinical multidrug-resistant but carbapenem-sensitive Escherichia coli (abbreviated as MDR-EC). […] The number of bacteria was counted. […]

[3] = system: clinical multidrug-resistant and carbapenem-resistant Escherichia coli (CR-EC); assay: Survival rate (dot plate counting) of clinical multidrug-resistant and carbapenem-resistant Escherichia coli, 18 strains; details: 10 hours
Protocol: as §1, §2

Row | Structure (SMILES) | number of live bacteria ([1]; 60 μg/mL micronomicin only, 1-4 hours) | survival rate ([1]; 60 μg/mL micronomicin only, 6 hours) [%] | survival rate ([1]; 60 μg/mL micronomicin only, 16 hours) [%] | survival rate ([1]; 60 μg/mL micronomicin only, 24 hours) [%] | survival rate ([1]; micronomicin 30 μg/mL without sodium formate, 10 hours) [%] | survival rate ([1]; micronomicin 60 μg/mL without sodium formate, 10 hours) [%] | survival rate ([1]; micronomicin 120 μg/mL without sodium formate, 10 hours) [%] | survival rate ([1]; micronomicin 240 μg/mL without sodium formate, 10 hours) [%] | survival rate ([1]; micronomicin 480 μg/mL without sodium formate, 10 hours) [%] | bacterial survival rate ([1]; sodium formate gradient experiment, control group: 60 μg/mL micronomicin without sodium formate, 10 hours) [%] | survival rate ([2]; 60 μg/mL micronomicin only, remaining 8 strains) | survival rate ([3]; 60 μg/mL micronomicin only, all 18 strains) | killing effect on bacteria ([2]; 20 mM sodium formate alone) | killing effect on bacteria ([3]; 20 mM sodium formate alone)
1 | CNC[C@@H]1CC[C@@H](N)[C@@H](O[C@H]2[C@H](O)[C@@H](O[C@H]3OC[C@](C)(O)[C@H](NC)[C@H]3O)[C@H](N)C[C@@H]2N)O1 [micronomicin] | remained basically unchanged | 87.96 | 72.72 | 34.64 | 100 | 77.37 | 35.87 | 29.77 | 29.01 | 72.3 | less than 60% | 67-97% |  | 
2 | O=C[O-].[Na+] [sodium formate] |  |  |  |  |  |  |  |  |  |  |  |  | no killing effect | no killing effect
